Experimental data from patent US10517889B2, “Modulators of SMAD7 expression” (Ionis Pharmaceuticals, Inc., priority 2017, dated 2019).
Strand notation (5' to 3'): a small letter for the sugar, then the base; units joined by * are phosphorothioate-linked, units joined directly phosphodiester-linked; [ ] holds rarer units or linkages, { } end groups; capitals alone tell only the bases. k = constrained ethyl (cEt); [5mC] = 5-methylcytosine; d = 2'-deoxy (DNA)

System: human SMAD7 mRNA
Assay: Antisense inhibition of human SMAD7 mRNA expression in Hep3B cells by 3-10-3 cEt gapmers, 10,000 nM, electroporation (Example 2)
Type: cell-based
Conditions: Hep3B cells, 10,000 nM antisense oligonucleotide, electroporation, approximately 24 hours, RT-PCR primer probe set RTS5062, relative to untreated control cells
Summary of the method: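 Percent inhibition of SMAD7 mRNA, relative to untreated cells, after ~24 h exposure of electroporated Hep3B cells to 10,000 nM cEt gapmer; levels by qRT-PCR, corrected for total RNA.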

Substance	% Inhibition [%]
800012 (kG*kA*kG*dG*dA*d[5mC]*dT*dT*d[5mC]*dA*dG*d[5mC]*d[5mC]*kT*kG*kT; antisense) [compound 800012]	49
798836 (kG*kT*k[5mC]*d[5mC]*dG*dA*dG*dG*d[5mC]*dA*dA*dA*dA*kG*k[5mC]*k[5mC]; antisense) [compound 798836]	56
799899 (antisense kA*kA*kG*dT*d[5mC]*dT*d[5mC]*dT*dT*dA*d[5mC]*d[5mC]*dT*k[5mC]*kA*k[5mC]) [compound 799899]	33
799996 (kG*kA*k[5mC]*d[5mC]*d[5mC]*dA*d[5mC]*dG*dG*dT*dT*dA*dA*kA*kT*kG; antisense) [compound 799996]	36
799894 (antisense kT*k[5mC]*k[5mC]*d[5mC]*dA*dA*d[5mC]*dT*dG*dG*dG*d[5mC]*dA*kG*k[5mC]*kT) [compound 799894]	2
799979 (kA*kA*k[5mC]*dG*dG*dT*dT*dG*d[5mC]*d[5mC]*dT*d[5mC]*dA*kT*k[5mC]*k[5mC]; antisense) [compound 799979]	38
772633 (kG*kG*kT*d[5mC]*dA*dT*dT*dG*dG*dG*d[5mC]*d[5mC]*dG*k[5mC]*kT*kG; antisense) [compound 772633]	37

Same assay, conditions: Hep3B cells, electroporation with 10,000 nM antisense oligonucleotide, approximately 24 hours, RTS5062, percent inhibition of SMAD7 mRNA relative to untreated control cells

Substance	% Inhibition [%]
799846 (kT*k[5mC]*k[5mC]*dA*d[5mC]*dT*dA*dT*dT*d[5mC]*dT*dA*dT*kG*kA*kA; antisense) [compound 799846]	25
799629 (kT*kA*k[5mC]*dA*d[5mC]*dA*d[5mC]*dA*d[5mC]*dA*dA*dG*d[5mC]*kT*kT*kG; antisense) [compound 799629]	24
799826 (antisense kG*kA*kT*d[5mC]*dA*dT*dT*d[5mC]*d[5mC]*d[5mC]*dA*d[5mC]*dA*k[5mC]*k[5mC]*k[5mC]) [compound 799826]	33

Same assay, conditions: Hep3B cells, electroporation with 10,000 nM antisense oligonucleotide, approximately 24 hours, SMAD7 mRNA by RT-PCR (RTS5062), relative to untreated control cells

Substance	% Inhibition [%]
798713 (antisense kG*k[5mC]*k[5mC]*dG*d[5mC]*d[5mC]*dA*d[5mC]*d[5mC]*dG*dG*d[5mC]*d[5mC]*k[5mC]*k[5mC]*kA) [compound 798713]	45
830083 (kA*kT*kG*dG*dT*dG*dT*dA*dT*dA*d[5mC]*d[5mC]*d[5mC]*kT*kG*k[5mC]; antisense) [compound 830083]	54
830136 (antisense kG*kA*kA*dA*dG*dT*dA*d[5mC]*dA*dA*dT*d[5mC]*dT*k[5mC]*k[5mC]*kT) [compound 830136]	64
830178 (antisense kA*k[5mC]*kG*dA*d[5mC]*dA*dG*d[5mC]*d[5mC]*dT*dG*dG*dA*kG*kA*k[5mC]) [compound 830178]	32
800059 (antisense kA*kA*kA*dA*d[5mC]*dA*dA*dG*dA*d[5mC]*dA*dG*dG*kG*kA*k[5mC]) [compound 800059]	31
790680 (kG*kG*kT*dG*dA*dG*dT*dA*dA*d[5mC]*d[5mC]*dA*dG*k[5mC]*kT*kG; antisense) [compound 790680]	56
800027 (k[5mC]*kG*k[5mC]*dT*dT*dT*dG*d[5mC]*dT*d[5mC]*d[5mC]*d[5mC]*dA*kG*kG*kG; antisense) [compound 800027]	0
798923 (kT*kT*kG*dA*dA*dG*dT*dG*dT*dG*dG*d[5mC]*d[5mC]*kT*kG*k[5mC]; antisense) [compound 798923]	54
798766 (k[5mC]*kT*kG*dA*dA*d[5mC]*dA*d[5mC]*dT*dT*dT*dG*d[5mC]*kA*k[5mC]*kA; antisense) [compound 798766]	34
798846 (k[5mC]*kT*k[5mC]*d[5mC]*dG*d[5mC]*dA*d[5mC]*d[5mC]*dT*dT*d[5mC]*dT*kG*k[5mC]*kA; antisense) [compound 798846]	40
830118 (kT*k[5mC]*k[5mC]*d[5mC]*dA*d[5mC]*d[5mC]*d[5mC]*dT*dA*dA*dA*d[5mC]*kT*kG*kA; antisense) [compound 830118]	0

Same assay, conditions: Hep3B cells, electroporation with 10,000 nM antisense oligonucleotide, approximately 24 hours, primer probe set RTS5062, relative to untreated control cells

Substance	% inhibition of SMAD7 mRNA expression [%]	% Inhibition [%]
798785 (k[5mC]*kT*kA*dG*dT*dT*d[5mC]*dG*d[5mC]*dA*dG*dA*dG*kT*k[5mC]*kG; antisense) [compound 798785]	0	–
798758 (kG*k[5mC]*kT*dG*d[5mC]*dG*d[5mC]*dA*dG*dG*d[5mC]*dT*dG*k[5mC]*kG*k[5mC]; antisense) [compound 798758]	0	–
799082 (antisense kG*k[5mC]*k[5mC]*d[5mC]*dA*dT*d[5mC]*dT*d[5mC]*dA*dG*dG*dG*kA*kG*kA) [compound 799082]	–	27
799340 (kA*kG*kA*dT*dA*d[5mC]*d[5mC]*d[5mC]*dA*dG*dT*dT*d[5mC]*kG*kG*k[5mC]; antisense) [compound 799340]	0	–
772712 (kA*k[5mC]*k[5mC]*d[5mC]*dA*dT*dA*dG*dA*dA*dA*dA*dA*kA*kA*k[5mC]; antisense) [compound 772712]	0	–
799116 (antisense kT*kA*kA*d[5mC]*dA*d[5mC]*dA*d[5mC]*dA*dG*dG*dA*dT*kG*kG*kG) [compound 799116]	–	34
799480 (antisense k[5mC]*kA*k[5mC]*dA*d[5mC]*dA*dG*dG*d[5mC]*dA*dA*d[5mC]*d[5mC]*kA*k[5mC]*kA) [compound 799480]	45	–
799266 (antisense kG*kG*k[5mC]*d[5mC]*dT*dT*d[5mC]*d[5mC]*dA*dT*d[5mC]*d[5mC]*dA*kA*k[5mC]*kT) [compound 799266]	37	–
799041 (kG*kG*k[5mC]*dA*dG*d[5mC]*dT*dG*d[5mC]*dT*dG*dG*dG*kA*k[5mC]*k[5mC]; antisense) [compound 799041]	–	22
798706 (antisense k[5mC]*kG*kG*d[5mC]*dT*dG*dT*d[5mC]*d[5mC]*dG*dT*d[5mC]*dG*k[5mC]*k[5mC]*k[5mC]) [compound 798706]	1	–
799134 (antisense kA*k[5mC]*kT*dG*d[5mC]*dT*dA*dA*dG*d[5mC]*dA*dT*dG*kT*k[5mC]*k[5mC]) [compound 799134]	–	17
799013 (kT*k[5mC]*k[5mC]*dA*dT*dA*dA*dG*dA*dG*dA*d[5mC]*dA*k[5mC]*kA*kA; antisense) [compound 799013]	–	37
798936 (antisense kG*k[5mC]*kA*dT*dG*dA*dA*dA*dA*dG*d[5mC]*dA*dA*kG*k[5mC]*kA) [compound 798936]	–	14
799216 (kT*kA*kT*dT*dA*dA*dA*dG*d[5mC]*dA*dA*dA*dG*kT*kG*k[5mC]; antisense) [compound 799216]	49	–

Same assay, conditions: Hep3B cells, electroporation, 10,000 nM antisense oligonucleotide, approximately 24 hours, RTS5062, relative to untreated control cells

Substance	% inhibition of SMAD7 mRNA expression [%]
799696 (antisense kA*kA*kG*dT*dT*dA*dT*d[5mC]*dT*dG*dG*dG*dA*kA*kG*k[5mC]) [compound 799696]	43
799600 (kG*k[5mC]*kA*d[5mC]*d[5mC]*dA*dA*d[5mC]*dT*d[5mC]*dT*dG*dA*kA*k[5mC]*kG; antisense) [compound 799600]	63
799621 (kT*kT*kT*d[5mC]*dA*d[5mC]*dT*dG*d[5mC]*dA*dA*dG*dT*k[5mC]*k[5mC]*k[5mC]; antisense) [compound 799621]	49

Same assay, conditions: SMAD7 mRNA, Hep3B cells, 10,000 nM antisense oligonucleotide, electroporation, approximately 24 hours, primer probe set RTS5062, relative to untreated control cells

Substance	% Inhibition [%]
800861 (antisense k[5mC]*k[5mC]*kA*dG*dT*dT*dG*dG*dT*dT*dT*dG*dA*kG*kA*kA) [compound 800861]	32
829748 (antisense k[5mC]*kT*k[5mC]*dG*d[5mC]*d[5mC]*dG*d[5mC]*d[5mC]*dG*dG*dG*d[5mC]*kG*k[5mC]*kA) [compound 829748]	43
829761 (antisense kT*k[5mC]*kA*dG*dA*dT*d[5mC]*d[5mC]*dG*d[5mC]*d[5mC]*dT*d[5mC]*kG*kG*k[5mC]) [compound 829761]	21
829730 (antisense kG*k[5mC]*kA*dG*dG*d[5mC]*dG*d[5mC]*dA*dG*dG*d[5mC]*dG*kA*k[5mC]*kA) [compound 829730]	23
829777 (antisense kG*kA*kG*d[5mC]*dG*dA*dG*dT*dA*dG*dG*dA*d[5mC]*kG*kA*kG) [compound 829777]	37
790647 (k[5mC]*kG*k[5mC]*dG*dA*dG*dG*d[5mC]*dG*dG*dT*dG*dA*kT*kT*kG; antisense) [compound 790647]	24

Same assay, conditions: SMAD7 mRNA, Hep3B cells, electroporation with 10,000 nM antisense oligonucleotide, approximately 24 hours, primer probe set RTS5062, relative to untreated control cells

Substance	% Inhibition [%]
829847 (antisense kT*kG*kT*d[5mC]*d[5mC]*dG*dA*dA*dT*dT*dG*dA*dG*k[5mC]*kT*kG) [compound 829847]	64
829889 (antisense k[5mC]*kG*kT*d[5mC]*d[5mC]*dA*d[5mC]*dG*dG*d[5mC]*dT*dG*d[5mC]*kT*kG*k[5mC]) [compound 829889]	48
829888 (antisense kG*kT*k[5mC]*d[5mC]*dA*d[5mC]*dG*dG*d[5mC]*dT*dG*d[5mC]*dT*kG*k[5mC]*kA) [compound 829888]	47
829978 (kA*kT*kA*dT*dT*dT*dA*dG*d[5mC]*dT*dG*dT*d[5mC]*kA*kG*kA; antisense) [compound 829978]	50
829802 (kT*kT*k[5mC]*dG*d[5mC]*dA*dG*dA*dG*dT*d[5mC]*dG*dG*k[5mC]*kT*kA; antisense) [compound 829802]	28
